According to patent US10877036B2, “Biosensor based on Gβγ-interacting proteins to monitor G-protein activation” (priority 2014, dated 2020):
Read-outs that look alike come from different tables or passages of the source.

Columns and labels:
Format in all cases: cell-based
[1] = target: T1, thromboxane A2 receptor (TPαR) (Homo sapiens, UniProt P21731); assay: βγIP-based BRET biosensor (GRK2-GFP/Rluc-Gγ5/Gβ1 plus indicated Gα), agonist activation of TPαR in HEK293 cells; conditions: read-out: potency of G-protein activation (dose-response curve)
T1 construct: host or cells: HEK293
T1 sequence (P21731 1-343): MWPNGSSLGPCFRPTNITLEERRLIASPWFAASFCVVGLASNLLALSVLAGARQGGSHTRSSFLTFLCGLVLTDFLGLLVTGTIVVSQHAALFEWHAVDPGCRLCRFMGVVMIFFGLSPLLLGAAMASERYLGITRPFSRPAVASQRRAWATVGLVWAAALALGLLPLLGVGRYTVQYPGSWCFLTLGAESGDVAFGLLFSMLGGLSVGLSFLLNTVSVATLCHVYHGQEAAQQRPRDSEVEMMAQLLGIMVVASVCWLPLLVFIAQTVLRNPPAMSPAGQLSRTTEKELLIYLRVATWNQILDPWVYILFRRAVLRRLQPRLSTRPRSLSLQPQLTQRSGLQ
Experimental: Cell culture and transfections. Human embryonic kidney 293 (HEK293) cells were maintained in Dulbecco's Modified Eagle's Medium (DMEM) supplemented with 10% fetal bovine serum, 100 unit/ml penicillin/streptomycin at 37° C. in a humidified atmosphere with 5% CO2. […]
BRET assays in living cells. […] BRET values were then collected using a Mithras™ LB940 Multimode Microplate Reader or a TRISTAR® LB942 Multimode Microplate Reader, equipped with the following filters: 400 nm±70 nm (energy donor) and 515 nm±20 nm (energy acceptor). BRET values were determined by calculating the ratio of the light emitted by GFP (515 nm) over the light emitted by the Rluc (400 nm). To determine the % of activation (Stim as % of basal), BRET values obtained for the agonist treated cells where expressed as a percentage of the BRET values obtained with the corresponding cells treated with vehicle.
Kinetics experiments. BRET assays were performed as described previously, except that BRET readings were collected at regular intervals, 5 min after coelenterazine addition, while ligands and vehicle were injected to the cells after 30 sec of BRET measurements.

[2] = target: T2, TPαR (Homo sapiens, UniProt P21731); assay: Rluc protein complementation assay (GRK2-Rluc F1/Rluc F2-Gγ5/Gβ1/Gα11), TPαR in HEK293 cells; conditions: Rluc-PCA, FIG. 9B, read-out: EC50 of G11 protein activation (luminescence)
T2 construct: host or cells: HEK293
T2 sequence (P21731 1-343): T1 sequence (P21731 1-343)
Experimental: Cell culture and transfections. Human embryonic kidney 293 (HEK293) cells were maintained in Dulbecco's Modified Eagle's Medium (DMEM) supplemented with 10% fetal bovine serum, 100 unit/ml penicillin/streptomycin at 37° C. in a humidified atmosphere with 5% CO2. Two days before the experiments, HEK293 cells were transfected with the indicated plasmids using poly-ethylenimine 25-kDa linear (PEI) as a transfecting agent (at a ratio of 3 to 1, PEI/DNA) (Hamdan, Rochdi et al. 2007), and then directly seeded in 96-well plates pre-treated with poly-L-ornithine hydrobromide or Poly-D-Lysine, at a density of 35,000 cells per well (for BRET and PCA assays in living cells), or 6-well plates at a density of 1,000,000 cells per well (for BRET assays on membrane preparations).
Protein complementation assays using RlucII fragments. Cells were washed twice with PBS, followed by Tyrode buffer addition. The cells were then pre-treated with the Rluc substrate, coelenterazine 400a, at a final concentration of 2.5 μM for 30 min at 37° C. The different ligands or vehicle were added for an additional 10 min. Luminescence values were then collected using a Mithras™ LB940 Multimode Microplate Reader, without any filters.

[3] = target: T2, TPαR; assay: Polycistronic vector biosensor (GRK2-GFP, Rluc-Gγ5, Gβ1) co-transfected with TPαR and Gα11; conditions: FIG. 11C
Text: Expression vectors: Biosensor constructs. Rluc-Gγ5 and GFP-Gγ: Plasmid encoding the fusion proteins Rluc-Gy1 to Gγ13 and GFP1O-Gγ5 were was obtained by PCR amplification of the Gγ coding sequences which were then fused in frame at its N-terminus to the humanized Renilla luciferase II (hRlucII) sequence (a variant of the hRluc previously reported (Leduc, Breton et al. 2009), SEQ ID NO:39) into pcDNA3.1 vector (linker sequence: GSAGT, SEQ ID NO: 33), or to the GFP10 (a variant form of the green fluorescent protein (GFP) previously reported (Mercier, Salahpour et al. 2002, SEQ ID NO:38). GRK2-GFP and GRK3-GFP: GRK2-GFP, GRK3-GFP, GRK2 Cterm (SEQ ID NO:50)-GFP, GRK3 Cterm (SEQ ID NO:51)-GFP were generated by PCR amplification of GRK2 and GRK3, which were then fused at their C-terminus to the GFP10 into pcDNA3.1 Zeo(+) vector, generating a linker of 11 amino acid residues between the GRK and the GFP10 protein (linker sequence: GSAGTGKLPAT, SEQ ID NO: 34). GFP-GRK2 and GFP-GRK3: […], GFP-GRK2 Cterm (SEQ ID NO:50), GFP-GRK3 Cterm (SEQ ID NO:51) were generated by PCR amplification of GRK2 and GRK3, which were then fused at their N-terminus to the GFP10 (SEQ ID NO:38) into pcDNA3.1 Zeo (+) vector, generating a linker of 7 amino acid residues between the GRK and the GFP10 protein (linker sequence: GSAGTGG, SEQ ID NO:52). […]

CCCCC[C@H](O)/C=C/[C@@H]1[C@@H](C/C=C\CCCC(=O)O)[C@H]2CO[C@@H]1C2 [U-46619]
EC50 ([1]; G-protein printed as Gβ, FIG. 3C): 0.5 nM
EC50 ([1]; Gα15/16, FIG. 3C): 6.6 nM
EC50 [2]: 8.4 nM
EC50 [3]: 4.3 nM
